# Patent publication US20100041089A1, “IMPROVED METHOD FOR DETECTING CHEMICAL […]” (priority 2006, published 2010)
# System: yeast genes (expressed mRNA)
# Test: DNA chip measurement of expressed mRNA of yeast genes after culture with a toxic chemical substance
# Assay type: cell-based, Saccharomyces cerevisiae S288C
# Conditions: for level of expressed mRNA in the presence of chemical substance / level in the absence of chemical substance: cultured two hours with the chemical substance; for The level of expressed mRNA in the presence of chemical substance/The level of expressed mRNA in the absence of chemical substance: cultured two hours with substance
# Method in brief: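 S. cerevisiae S288C grown at 25 °C in YPD, exposed in log phase for 2 h to a toxicant at growth-inhibiting, non-lethal concentration. Cy3/Cy5-labelled cDNA from poly(A) mRNA hybridized to whole-genome chip at 65 °C >12 h. Ratio to untreated control, ≥2 significant.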
structure (smiles),measurement,setting,value
"[Cl][Pb][Cl] [(4), PbCl2]",level of expressed mRNA in the presence of chemical substance / level in the absence of chemical substance,yeast gene YJL097W,1.6
same,The level of expressed mRNA in the presence of chemical substance/The level of expressed mRNA in the absence of chemical substance,yeast gene YJL151C,1.2
same,The level of expressed mRNA in the presence of chemical substance/The level of expressed mRNA in the absence of chemical substance,yeast gene YJL152W,1.3
same,The level of expressed mRNA in the presence of chemical substance/The level of expressed mRNA in the absence of chemical substance,yeast gene YJL161W,4.6
same,The level of expressed mRNA in the presence of chemical substance/The level of expressed mRNA in the absence of chemical substance,yeast gene YJL171C,1.4
same,The level of expressed mRNA in the presence of chemical substance/The level of expressed mRNA in the absence of chemical substance,yeast gene YJR008W,1.7
same,level of expressed mRNA in the presence of chemical substance / level in the absence of chemical substance,yeast gene YJR030C,1.2
same,The level of expressed mRNA in the presence of chemical substance/The level of expressed mRNA in the absence of chemical substance,yeast gene YJR054W,0.9
same,level of expressed mRNA in the presence of chemical substance / level in the absence of chemical substance,yeast gene YKL051W,0.8
same,The level of expressed mRNA in the presence of chemical substance/The level of expressed mRNA in the absence of chemical substance,yeast gene YKL071W,2.8
same,The level of expressed mRNA in the presence of chemical substance/The level of expressed mRNA in the absence of chemical substance,yeast gene YKL086W,2.6
same,level of expressed mRNA in the presence of chemical substance / level in the absence of chemical substance,yeast gene YKL097C,1.4
same,level of expressed mRNA in the presence of chemical substance / level in the absence of chemical substance,yeast gene YKL100C,1.6
same,The level of expressed mRNA in the presence of chemical substance/The level of expressed mRNA in the absence of chemical substance,yeast gene YKL151C,2.5
same,The level of expressed mRNA in the presence of chemical substance/The level of expressed mRNA in the absence of chemical substance,yeast gene YKL153W,0.7
same,The level of expressed mRNA in the presence of chemical substance/The level of expressed mRNA in the absence of chemical substance,yeast gene YKL195W,1.1
same,level of expressed mRNA in the presence of chemical substance / level in the absence of chemical substance,yeast gene YKR040C,2.9
same,The level of expressed mRNA in the presence of chemical substance/The level of expressed mRNA in the absence of chemical substance,yeast gene YKR091W,3.5
same,The level of expressed mRNA in the presence of chemical substance/The level of expressed mRNA in the absence of chemical substance,yeast gene YLR054C,2.4
same,The level of expressed mRNA in the presence of chemical substance/The level of expressed mRNA in the absence of chemical substance,yeast gene YLR149C,2.3
same,The level of expressed mRNA in the presence of chemical substance/The level of expressed mRNA in the absence of chemical substance,yeast gene YLR152C,0.9
same,The level of expressed mRNA in the presence of chemical substance/The level of expressed mRNA in the absence of chemical substance,yeast gene YLR194C,3.6
same,level of expressed mRNA in the presence of chemical substance / level in the absence of chemical substance,yeast gene YLR226W,1.0
same,The level of expressed mRNA in the presence of chemical substance/The level of expressed mRNA in the absence of chemical substance,yeast gene YLR324W,1.0
same,level of expressed mRNA in the presence of chemical substance / level in the absence of chemical substance,yeast gene YLR338W,1.1
same,The level of expressed mRNA in the presence of chemical substance/The level of expressed mRNA in the absence of chemical substance,yeast gene YLR350W,2.3
same,The level of expressed mRNA in the presence of chemical substance/The level of expressed mRNA in the absence of chemical substance,yeast gene YLR387C,0.6
same,level of expressed mRNA in the presence of chemical substance / level in the absence of chemical substance,yeast gene YLR392C,1.9
same,level of expressed mRNA in the presence of chemical substance / level in the absence of chemical substance,yeast gene YLR427W,0.5
same,The level of expressed mRNA in the presence of chemical substance/The level of expressed mRNA in the absence of chemical substance,yeast gene YLR460C,1.1
same,level of expressed mRNA in the presence of chemical substance / level in the absence of chemical substance,yeast gene YML013W,0.6
same,level of expressed mRNA in the presence of chemical substance / level in the absence of chemical substance,yeast gene YML029W,1.0
same,level of expressed mRNA in the presence of chemical substance / level in the absence of chemical substance,yeast gene YML041C,1.0
same,level of expressed mRNA in the presence of chemical substance / level in the absence of chemical substance,yeast gene YML079W,1.5
same,The level of expressed mRNA in the presence of chemical substance/The level of expressed mRNA in the absence of chemical substance,yeast gene YML117W,1.6
same,The level of expressed mRNA in the presence of chemical substance/The level of expressed mRNA in the absence of chemical substance,yeast gene YMR009W,1.9
same,The level of expressed mRNA in the presence of chemical substance/The level of expressed mRNA in the absence of chemical substance,yeast gene YMR067C,0.4
same,level of expressed mRNA in the presence of chemical substance / level in the absence of chemical substance,yeast gene YMR068W,1.5
same,level of expressed mRNA in the presence of chemical substance / level in the absence of chemical substance,yeast gene YMR071C,1.9
same,The level of expressed mRNA in the presence of chemical substance/The level of expressed mRNA in the absence of chemical substance,yeast gene YMR090W,3.5
same,The level of expressed mRNA in the presence of chemical substance/The level of expressed mRNA in the absence of chemical substance,yeast gene YMR095C,1.0
same,The level of expressed mRNA in the presence of chemical substance/The level of expressed mRNA in the absence of chemical substance,yeast gene YMR097C,1.6
same,The level of expressed mRNA in the presence of chemical substance/The level of expressed mRNA in the absence of chemical substance,yeast gene YMR102C,0.8
same,The level of expressed mRNA in the presence of chemical substance/The level of expressed mRNA in the absence of chemical substance,yeast gene YMR107W,18.4
same,level of expressed mRNA in the presence of chemical substance / level in the absence of chemical substance,yeast gene YMR160W,1.2
same,The level of expressed mRNA in the presence of chemical substance/The level of expressed mRNA in the absence of chemical substance,yeast gene YMR180C,1.3
same,The level of expressed mRNA in the presence of chemical substance/The level of expressed mRNA in the absence of chemical substance,yeast gene YMR184W,1.1
same,The level of expressed mRNA in the presence of chemical substance/The level of expressed mRNA in the absence of chemical substance,yeast gene YMR191W,1.6
same,The level of expressed mRNA in the presence of chemical substance/The level of expressed mRNA in the absence of chemical substance,yeast gene YMR295C,1.6
same,The level of expressed mRNA in the presence of chemical substance/The level of expressed mRNA in the absence of chemical substance,yeast gene YMR316W,1.9
same,level of expressed mRNA in the presence of chemical substance / level in the absence of chemical substance,yeast gene YNL026W,0.8
same,The level of expressed mRNA in the presence of chemical substance/The level of expressed mRNA in the absence of chemical substance,yeast gene YNL044W,1.3
